Source: the supplement of paper PMC8882468
± gives the standard deviation of the averaged measurements.

Columns and labels:
Assay in all cases: CTG-3D luminescence at 96 h relative to day-0 seeding control (ratio to day 0); higher = more growth / less cytotoxicity; PDxO 3D drug screen, 96 h, CTG-3D normalised to day-0 seeding control.
[1] = test system: HCI-011.E2 (organoid from an ER-positive breast cancer xenograft)
[2] = test system: HCI-012 (organoid from a breast cancer xenograft)
[3] = test system: HCI-019 (organoid from a triple-negative breast cancer xenograft)
[4] = test system: HCI-015 (organoid from a triple-negative breast cancer xenograft)

CNC(=O)c1cccc(-c2ccc3c(N4CCOC[C@@H]4C)nc(N4CCOC[C@@H]4C)nc3n2)c1 [vistusertib]
[1]
Settings	CTG-3D luminescence at 96 h
12.5 pM	1.477 ± 0.0098
0.00025 µM	1.841 ± 0.016
0.005 µM	1.52 ± 0.22
0.1 µM	1.23 ± 0.041
1 µM	0.256 ± 0.0052
10 µM	0.212 ± 0.016
100 µM	0.057 ± 0.0028
625 fM	1.59 ± 0.38

CTG-3D luminescence at 96 h
Settings	12.5 pM	0.00025 µM	0.005 µM	0.1 µM	1 µM	10 µM	100 µM	625 fM
[1], days in culture: 74	3.1	2.54	2.03	1	0.26	0.247	0.0598	2.38
[2], days in culture: 143	2.08	2.14	2.4	1.9	1.14	0.875	0.292	1.87
[2], days in culture: 162	2.68	2.6	1.94	2.8	1.21	1.06	0.318	3.34
[2], days in culture: 201	2.73	1.99	1.53	1.7	1.42	0.57	0.745	1.48
[3], days in culture: 110	1.84	1.95	1.82	1.67	0.591	0.882	0.492	2.38
[3], days in culture: 131	2.64	4.03	2.46	2.64	0.938	1.24	0.736	3.83
[3], days in culture: 152	2.51	2.65	3.11	1.64	0.846	0.759	0.555	2.52
[4], days in culture: 172	2.36	1.61	–	–	–	–	–	–
[4], days in culture: 191	1.84	–	–	–	–	–	–	–
[4], days in culture: 218	2.16	–	–	–	–	–	–	–
